# Columns and labels:
# Assay type in all cases: cell-based
# A. baumannii ATCC 17978 = test: MIC, WuXi, Mueller-Hinton Broth; conditions: Acinetobacter baumannii, ATCC17978, performed by WuXi in Mueller-Hinton Broth
# Procedure: (§1) For MICs calculations performed by WuXi (Shanghai, China), MIC was calculated as the lowest concentration that inhibits visible growth after 18 hours. 4-8 bacterial colonies of strains of interest were vortexed in saline and adjusted to an OD600 of 0.2. Strains were diluted 1:200 into CAMHB media into 96-well plates. Antibiotics were serially diluted 1:3 in DMSO, and 1 μL of each dilution was added to bacteria. The plates were incubated for 18-20 hours at 37° C. before observation.
# E. coli ATCC BAA-198 = test: MIC, WuXi, Mueller-Hinton Broth; conditions: Escherichia coli, ATCCBAA198, performed by WuXi in Mueller-Hinton Broth
# Procedure: as §1
# E. faecalis ATCC 51575 = test: MIC, WuXi, Mueller-Hinton Broth; conditions: Enterococcus faecalis, ATCC51575, performed by WuXi in Mueller-Hinton Broth
# Procedure: as §1
# S. aureus NRS384 = test: MIC, WuXi, Mueller-Hinton Broth; conditions: Staphylococcus aureus, performed by WuXi in Mueller-Hinton Broth
# Procedure: as §1
# [1] = test system: S. typhimurium CMCC 50115; test: MIC, WuXi, Mueller-Hinton Broth; conditions: Salmonella enterica, performed by WuXi in Mueller-Hinton Broth
# Procedure: as §1
# P. aeruginosa PA14 [2] = test: Drug accumulation assay (intrabacterial drug metabolism, LC/MS); conditions: PA14, 5 μM, compared with TMP
# Procedure: FIG. 1G provides intrabacterial drug metabolism (IBDM) of PA14 treated with 5 μM fluorofolin or trimethoprim. Samples were taken at time t=0, 30, 60, and 90 minutes. Data represent mean±SD of triplicate technical replicates.
# FIG. 1H provides cumulative accumulation of drugs over 90 mins by AUC of IBDM curves. Data represent mean±SD of triplicate technical replicates. (P value≤0.0001) t-test using Prism 9.
# Overnight PA14 cultures were back-diluted to early-mid exponential phase (OD600=0.4-0.6). The assay was initiated with treatment of the culture with either 5.0 μM fluorofolin or 5.0 μM trimethoprim. A DMSO treated culture was utilized as a control. […] The resulting cell lysate samples were analyzed utilizing verapamil as an internal standard. […]
# Compound accumulation was realized using the selective ion monitoring (SIM) mode to quantify peak integration for a compound and the internal standard using their respective m/z values. Compound peaks were confirmed using a scanning mode that detected the compound peak using an m/z range of 100-1000. Peak area integration values were determined and a ratio of the peak area for the compound to the peak area for the verapamil internal standard was calculated and compound concentration was then determined from the compound calibration curve. […]
# P. aeruginosa PA14 [3] = test: Checkerboard assay of fluorofolin and sulfamethoxazole
# Procedure: FIG. 2B is a Checkerboard assay of fluorofolin and sulfamethoxazole. Z-values represent fractional inhibitory concentrations (FICs). FICs were determined by dividing the MIC of each drug when used in combination by the MIC when used alone. FIC of less than or equal to 0.5 is considered a synergistic effect.
# Cells were seeded in a similar manner as described above for MIC calculations. Sulfamethoxazole (Chem-Impex 00821) was diluted 1:2 down the rows of the plate, while fluorofolin was diluted 1:2 down the column of the plate. Fractional inhibitory concentrations (FICs) were calculated as [fluorofolin]/MICFluorofolin+[SMX]/MICSMX where [fluorofolin] and [SMX] are the concentrations of compounds in given well, which are dividing by the concentration of drug at the MIC for each compound. FIC values less than or equal to 0.5 are considered synergistic.
# E. coli lptd34213 = test: Growth with thymidine supplementation; conditions: fluorofolin 50 μg/mL, 0.3 mM thymidine; also with SMX
# Procedure: FIG. 6F quantifies P. aeruginosa PA14 or E. coli lptd4213 treated with fluorofolin 50 μg/mL in the presence or absence of 0.3 mM thymidine.
# FIG. 6G quantifies E. coli lptd4213 treated with fluorofolin 50 μg/mL and SMX (78.1 μg/mL) in the presence or absence of 0.3 mM thymidine or 0.3 mM TMI supplementation, Curves represent optical at 600 nm (OD600) of 2 biological replicates. Mean±SD are shown.
# Where listed, growth media were prepared according manufacturer recommendations: LB Broth and LB Broth supplemented with 0.3 mM thymine (BD Biosciences 244610, Alfa Aesar A15879), 0.3 mM methionine (Sigma-Aldrich M9625), 0.3 mM inosine (EMD Millipore 4060), Mueller Hinton II Broth (Cation-Adjusted)/(CAMHB) (BD 212322) or 0.3 mM thymidine (Sigma-Aldrich T1895), Gutnick Minimal Media (1.0 g/L K2SO4, 13.5 g/L K2HPO4, 4.7 g/L KH2PO4, 0.1 g/L of MgSO4-7H2O, 10 mM NH4Cl as a nitrogen source, and 0.4% w/v glucose as a carbon source)^62.
compound,measurement,setting,value
Nc1nc(N)c2c(ccc3c2ccn3Cc2ccnc(F)c2)n1 [fluorofolin],MIC,A. baumannii ATCC 17978,0.8 µg/mL
same,MIC,E. coli ATCC BAA-198,7.11 µg/mL
same,MIC,E. faecalis ATCC 51575,0.01 µg/mL
same,MIC,S. aureus NRS384,0.03 µg/mL
same,MIC,[1],0.03 µg/mL
same,rate of accumulation in P. aeruginosa,P. aeruginosa PA14 [2]; 0-90 min,more rapidly
same,cumulative accumulation (AUC of IBDM curves),P. aeruginosa PA14 [2]; over 90 mins,higher levels
same,MIC,"P. aeruginosa PA14 [3]; Pseudomonas aeruginosa, PA14, SMX 156 μg/mL, read-out: MIC of fluorofolin in the presence of SMX",0.4 µg/mL
same,"synergy (FIC, checkerboard)","P. aeruginosa PA14 [3]; combination of fluorofolin and sulfamethoxazole (SMX), PA14",significant synergy
same,rescue of growth inhibition by thymidine supplementation alone,E. coli lptd34213,Rescue from fluorofolin inhibition was also shown
